Test results published in patent publication US7109193B2, “Tricyclic diazepines tocolytic oxytocin receptor antagonists” (Wyeth, priority 2001, dated 2006).

Molecular target: T1, human vasopressin V1a receptor subtype (Homo sapiens, UniProt P37288)
T1 construct: host or cells: CHO cells (pZeoSV vector for the Thibonnier line)
Experiment: Vasopressin binding in Chinese Hamster Ovary cell membranes expressing human vasopressin V1a subtype receptors
Settings: CHO cell membranes, [3H]Manning ligand; for IC50: values in parentheses; for inhibition at 0.1 µM: 100 nM, values without parentheses
Outline: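 Membranes from CHO cells expressing human V1a receptor were incubated with [3H]Manning ligand (added as 20 μL of 8 nM) in pH 7.4 Tris buffer with MgCl2, BSA and protease inhibitors, 60 min at room temperature. Bound radioactivity was counted after filtration; values are percent inhibition at a stated concentration or IC50.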

T1 sequence (P37288 whole entry): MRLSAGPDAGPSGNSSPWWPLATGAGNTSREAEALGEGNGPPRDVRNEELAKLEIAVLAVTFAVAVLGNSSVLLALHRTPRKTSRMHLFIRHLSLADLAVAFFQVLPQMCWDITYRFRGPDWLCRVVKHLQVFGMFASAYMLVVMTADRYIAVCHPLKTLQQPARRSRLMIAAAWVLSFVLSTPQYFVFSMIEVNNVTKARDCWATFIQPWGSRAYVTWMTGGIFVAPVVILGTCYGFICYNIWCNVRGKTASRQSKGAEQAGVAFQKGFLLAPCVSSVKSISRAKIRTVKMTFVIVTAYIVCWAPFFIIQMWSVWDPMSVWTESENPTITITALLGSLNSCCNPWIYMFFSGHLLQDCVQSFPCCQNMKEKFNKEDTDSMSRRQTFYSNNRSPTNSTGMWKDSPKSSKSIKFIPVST

IC50 [nM] | inhibition at 0.1 µM [%] | SMILES
661 |  | COc1cc(-c2ccccc2C)c(Cl)cc1C(=O)N1Cc2ccc(C(=O)N3CCC(N4CCCCC4)CC3)n2Cc2ccccc21 [Example 110, {10-[(6-Chloro-3-methoxy-2′-methyl[1,1′-biphenyl]-4-yl)carbonyl]-10,11-dihydro-5H-pyrrolo[2,1-c][1,4]benzodiazepin-3-yl}[4-(1-piperidinyl)-1-piperidinyl]methanone]
913 |  | Cc1cc(C(=O)N2Cc3ccc(C(=O)N4CCC[C@H]4CN4CCCC4)n3Cc3ccccc32)ccc1-c1ccccc1C(F)(F)F [Example 258, (10-{[2-Methyl-2′-(trifluoromethyl)[1,1′-biphenyl]-4-yl]carbonyl}-10,11-dihydro-5H-pyrrolo[2,1-c][1,4]benzodiazepin-3-yl)[(2S)-2-(1-pyrrolidinylmethyl)pyrrolidinyl]methanone]
681 |  | COc1cc(-c2ccccc2C)c(Cl)cc1C(=O)N1Cc2ccc(C(=O)N3CCCN(C)CC3)n2Cc2ccccc21 [Example 60, {10-[(6-Chloro-3-methoxy-2′-methyl[1,1′-biphenyl]-4-yl)carbonyl]-10,11-dihydro-5H-pyrrolo[2,1-c][1,4]benzodiazepin-3-yl}(4-methyl-1,4-diazepan-1-yl)methanone]
481 |  | COc1cc(-c2ccccc2C)c(Cl)cc1C(=O)N1Cc2ccc(C(=O)N3CC[C@@H](N(C)C)C3)n2Cc2ccccc21 [Example 273, {10-[(6-Chloro-3-methoxy-2′-methyl[1,1′-biphenyl]-4-yl)carbonyl]-10,11-dihydro-5H-pyrrolo[2,1-c][1,4]benzodiazepin-3-yl}[(3R)-3-(dimethylamino)pyrrolidinyl]methanone]
818 |  | C=CCN1CCN(C(=O)c2ccc3n2Cc2ccccc2N(C(=O)c2ccc(-c4ccccc4OC)cc2)C3)CC1 [Example 221, (4-Allyl-1-piperazinyl){10-[(2′-methoxy[1,1′-biphenyl]4-yl)carbonyl]-10,11-dihydro-5H -pyrrolo[2,1-c][1,4]benzodiazepin-3-yl}methanone]
172 |  | COc1cc(-c2ccccc2C)c(Cl)cc1C(=O)N1Cc2ccc(C(=O)N(C)CCN(C)C)n2Cc2ccccc21 [Example 86, 10-[(6-Chloro-3-methoxy-2′-methyl[1,1′-biphenyl]-4-yl)carbonyl]-N-[2-(dimethylamino)ethyl]-N-methyl-10,11-dihydro-5H-pyrrolo[2,1-c][1,4]benzodiazepine-3-carboxamide]
303 |  | COc1cccc(-c2ccc(C(=O)N3Cc4ccc(C(=O)N5CC[C@@H](N(C)C)C5)n4Cc4ccccc43)cc2C)c1 [Example 278, [(3R)-3-(Dimethylamino)pyrrolidinyl]{10-[(3′-methoxy-2-methyl[1,1′-biphenyl]-4-yl)carbonyl]-10,11-dihydro-5H-pyrrolo[2,1-c][1,4]benzodiazepin-3-yl}methanone]
 | 50 | COc1cccc(-c2ccc(C(=O)N3Cc4ccc(C(=O)N(C)CCN(C)C)n4Cc4ccccc43)cc2C)c1 [Example 89, N-[2-(Dimethylamino)ethyl]-10-[(3′-methoxy-2-methyl[1,1′-biphenyl]-4-yl)carbonyl]-N-methyl-10,11-dihydro-5H-pyrrolo[2,1-c][1,4]benzodiazepine-3-carboxamide]
1090 |  | Cc1cc(C(=O)N2Cc3ccc(C(=O)N(C)CCCN(C)C)n3Cc3ccccc32)ccc1-c1ccccc1C(F)(F)F [Example 97, N-[3-(Dimethylamino)propyl]-N-methyl-10-{[2-methyl-2′-(trifluoromethyl)[1,1′-biphenyl]-4-yl]carbonyl}-10,11-dihydro-5H-pyrrolo[2,1-c][1,4]benzodiazepine-3-carboxamide]
933 |  | COc1ccccc1-c1ccc(C(=O)N2Cc3ccc(C(=O)N4CCN(CCCN(C)C)CC4)n3Cc3ccccc32)cc1C [Example 245, {4-[3-(Dimethylamino)propyl]-1-piperazinyl}{10-[(2′-methoxy-2-methyl[1,1′-biphenyl]-4-yl)carbonyl]-10,11-dihydro-5H-pyrrolo[2,1-c][1,4]benzodiazepin-3-yl}methanone]
 | 75 | Cc1ccccc1-c1ccc(C(=O)N2Cc3ccc(C(=O)N(C)CCCN(C)C)n3Cc3ccccc32)cc1C [Example 101, N-[3-(Dimethylamino)propyl]-10-[(2,2′-dimethyl[1,1′-biphenyl]-4-yl)carbonyl]-N-methyl-10,11-dihydro-5H-pyrrolo[2,1-c][1,4]benzodiazepine-3-carboxamide]
1240 |  | Cc1cc(C(=O)N2Cc3ccc(C(=O)N4CCN(CCN(C)C)CC4)n3Cc3ccccc32)ccc1-c1ccccc1C(F)(F)F [Example 196, {4-[2-(Dimethylamino)ethyl]-1-piperazinyl}(10-{[2-methyl-2′-(trifluoromethyl)[1,1′-biphenyl]-4-yl]carbonyl}-10,11-dihydro-5H-pyrrolo[2,1-c][1,4]benzodiazepin-3-yl)methanone]
 | 43 | COc1ccccc1-c1ccc(C(=O)N2Cc3ccc(C(=O)N(C)CCCN(C)C)n3Cc3ccccc32)cc1 [Example 103, N-[3-(Dimethylamino)propyl]-10-[(2′-methoxy[1,1′-biphenyl]-4-yl)carbonyl]-N-methyl-10,11-dihydro-5H-pyrrolo[2,1-c][1,4]benzodiazepine-3-carboxamide]
1890 |  | Cc1cc(C(=O)N2Cc3ccc(C(=O)N4CCCN(C)CC4)n3Cc3ccccc32)ccc1-c1ccccc1C(F)(F)F [Example 59, (4-Methyl-1,4-diazepan-1-yl)(10-{[2-methyl-2′-(trifluoromethyl)[1,1′-biphenyl]-4-yl]carbonyl}-10,11-dihydro-5H-pyrrolo[2,1-c][1,4]benzodiazepin-3-yl)methanone]
 | 68 | COc1cccc(-c2ccc(C(=O)N3Cc4ccc(C(=O)N(C)CCN(C)C)n4Cc4ccccc43)cc2OC)c1 [Example 95, 10-[(2,3′-Dimethoxy[1,1′-biphenyl]-4-yl)carbonyl]-N-[2-(dimethylamino)ethyl]-N-methyl-10,11-dihydro-5H-pyrrolo[2,1-c][1,4]benzodiazepine-3-carboxamide]
1000 |  | COc1cc(-c2ccccc2C)c(Cl)cc1C(=O)N1Cc2ccc(C(=O)N3CCN(C)CC3)n2Cc2ccccc21 [Example 47, {10-[(6-Chloro-3-methoxy-2′-methyl[1,1′-biphenyl]-4-yl)carbonyl]-10,11-dihydro-5H-pyrrolo[2,1-c][1,4]benzodiazepin-3-yl}(4-methyl-1-piperazinyl)methanone]
70.4 |  | COc1cc(-c2ccccc2C)ccc1C(=O)N1Cc2ccc(C(=O)N(C)CCCN(C)C)n2Cc2ccccc21 [Example 11, N-Methyl-N-[3-(dimethylamino)propyl]-10-[(3-methoxy-2′-methyl[1,1′-biphenyl]-4-yl)carbonyl]-10,11-dihydro-5H-pyrrolo[2,1-c][1,4]benzodiazepine-3-carboxamide]
 | 63 | COc1ccccc1-c1ccc(C(=O)N2Cc3ccc(C(=O)N(C)CCN(C)C)n3Cc3ccccc32)cc1 [Example 90, N-[2-(Dimethylamino)ethyl]-10-[(2′-methoxy[1,1′-biphenyl]-4-yl)carbonyl]-N-methyl-10,11-dihydro-5H-pyrrolo[2,1-c][1,4]benzodiazepine-3-carboxamide]
 | 85 | Cc1ccccc1-c1ccc(C(=O)N2Cc3ccc(C(=O)N(C)CCCN(C)C)n3Cc3ccccc32)cc1 [Example 104, N-[3-(Dimethylamino)propyl]-N-methyl-10-[(2′-methyl[1,1′-biphenyl]-4-yl)carbonyl]-10,11-dihydro-5H-pyrrolo[2,1-c][1,4]benzodiazepine-3-carboxamide]
